{"source": "patent US12320798B2", "about": "“Diagnostic methods, therapeutic agents and uses thereof” (Metabolon, Inc., priority 2015, dated 2025)", "experiment": "12 week lifestyle plus metformin intervention in IFG subjects", "type": "in vivo, human", "conditions": "12 weeks lifestyle + metformin 2 g/day, 33 IFG subjects", "excerpt": "33 subjects with IFG underwent a 12 week intervention including both lifestyle (diet and exercise) changes and drug (metformin, dose: 2 g/day) therapy. At baseline, this study was 49% female with a mean age of 54 and mean BMI of 30.9."}
{"molecule": "CN(C)C(=N)N=C(N)N", "note": "[metformin]", "values": [{"measurement": "% Decrease from baseline, 2hPG", "result": 13.0, "unit": "%"}, {"measurement": "% Decrease from baseline, FPG", "result": 9.4, "unit": "%"}, {"measurement": "% Decrease from baseline, Weight", "result": 6.8, "unit": "%"}]}
